Like-named read-outs stand apart in the source and are kept apart here.
Experiments:
C57BL/KsJ db/db mice [1] = assay: Serum glucose levels in db/db mice after 4 days of subcutaneous treatment; settings: male db/db mice, postabsorption conditions, 8 hours after last treatment, control = 100
C57BL/KsJ db/db mice [2] = assay: Consumption of water and food by db/db mice; settings: male db/db mice, control = 100
Text: The C57BL/KsJ db/db mice used in the experiments reported here below were supplied by Jackson Lab (via Ch. River).

rat = settings: oral administration; cited from earlier work
diabetic patients = settings: cited from earlier work
ob/ob mouse = assay: Reduction in hyperglycaemia in the ob/ob mouse (laboratory experiments); settings: oral dose of 600 mg/kg/day
KKAy mouse = settings: oral dose of 900 mg/kg/day; cited from earlier work
[3] = 100 mg/kg s.c. twice daily for 4 days
[4] = 25 mg/kg s.c. twice daily for 4 days

Structure (SMILES)	Glucose % (variation vs Control) (C57BL/KsJ db/db mice [1]; [3])	Food % (consumption, variation vs Control) (C57BL/KsJ db/db mice [2]; [3])	Water % (consumption, variation vs Control) (C57BL/KsJ db/db mice [2]; [3])	LD50 (rat)	reduction of hyperglycaemia (diabetic patients; in combination with sulphonylureas)	reduction of hyperglycaemia (diabetic patients; monotherapy after the failure of diet and physical exercise)	reduction in hyperglycaemia (ob/ob mouse)	reduction in hyperglycaemia (KKAy mouse)	Glucose % (variation vs Control) (C57BL/KsJ db/db mice [1]; [4])	Food % (consumption, variation vs Control) (C57BL/KsJ db/db mice [2]; [4])	Water % (consumption, variation vs Control) (C57BL/KsJ db/db mice [2]; [4])
CN(C)C(=N)N=C(N)N [Metformin]	104%	119%	113%	1000 mg/kg	25%	20-30%	22%	50%			
CC(C)=CCNC(=N)NCCCCCCN.CS(=O)(=O)O [ST2370, N-(γ,γ-dimethylallyl)-N′-(6-aminohexyl)guanidine methane sulphonate]									69 □ %	81%	47%
CC(C)=CCNC(=N)NCCCCN.CS(=O)(=O)O [ST2369, N-(4-aminobutyl)-N′-(γ,γ-dimethylallyl)guanidine methane sulphonate]										63%	47%
